Converted amounts (≈) assume the structure as drawn. Where only a bound is given, the exact number is not on record here.

Holding throughout (format): functional
Assay [1] concerns Streptococcus pneumoniae. The assay can be described thus: Potency index, ratio of azithromycin MIC to compound MIC against erythromycin-resistant Streptococcus pneumoniae A22072.
Assay [2] has as its system Streptococcus pneumoniae. The assay can be described thus: Antibacterial activity against erythromycin-resistant Streptococcus pneumoniae AB11 harboring harboring mef and erm gene after 24 h by NCCLS broth microdilution method. Conditions: AB11, 24 h.
The subject of assay [3] is Staphylococcus aureus. The assay can be described thus: Antibacterial activity against erythromycin-susceptible Staphylococcus aureus ATCC 25923 after 24 h by NCCLS broth microdilution method. The note with it: ATCC 25923, 24 h. A general note: Broth dilution looks for growth in wells or tubes with falling amounts of substance.
Assay [4] deals with Staphylococcus aureus. Nature of the assay: Antibacterial activity against […] Staphylococcus aureus ATCC 29213 after 24 h by NCCLS broth microdilution method. The note with it: ATCC 29213, 24 h.
Assay [5] concerns Streptococcus pyogenes. The assay can be described thus: Antibacterial activity against erythromycin-susceptible Streptococcus pyogenes after 24 h by NCCLS broth microdilution method.
The next assay concerns Escherichia coli. The assay can be described thus: Antibacterial activity against penicillin-susceptible Escherichia coli ATCC 25922 after 24 h by NCCLS broth microdilution method. The note with it: ATCC 25922, 24 h.
The test system of assay [6] is Streptococcus pyogenes. Nature of the assay: Antibacterial activity against erythromycin-resistant Streptococcus pyogenes R1 after 24 h by NCCLS broth microdilution method. Conditions: R1, 24 h.
Assay [7] relates to Streptococcus pneumoniae. Nature of the assay: Antibacterial activity against erythromycin-resistant Streptococcus pneumoniae A22072 harboring mef gene after 24 h by NCCLS broth microdilution method. Conditions: A22072, 24 h.
Another assay deals with Pseudomonas aeruginosa. Nature of the assay: Antibacterial activity against penicillin-susceptible Pseudomonas aeruginosa ATCC 27853 after 24 h by NCCLS broth microdilution method. The note with it: ATCC 27853, 24 h.
Assay [8] relates to Streptococcus pneumoniae. Nature of the assay: Antibacterial activity against erythromycin-resistant Streptococcus pneumoniae B1 harboring erm gene after 24 h by NCCLS broth microdilution method. The note with it: B1, 24 h.
In a further assay the test system is Bacillus subtilis. The assay can be described thus: Antibacterial activity against penicillin-susceptible Bacillus subtilis ATCC 9372 after 24 h by NCCLS broth microdilution method. The note with it: ATCC 9372, 24 h.
Assay [9] relates to Streptococcus pneumoniae. The assay can be described thus: Potency index, ratio of clarithromycin MIC to compound MIC against erythromycin-resistant Streptococcus pneumoniae A22072.

The term MIC denotes the least concentration at which growth counts as inhibited. Low values mean a more susceptible organism, high ones a less susceptible organism. As to `CC[C@H]1OC(=O)[C@H](C)C(=O)[C@H](C)[C@@H](O[C@@H]2O[C@H](C)C[C@H](N(C)C)[C@H]2O)[C@](C)(OC)C[C@@H](C)C(=O)[C@H](C)[C@@H](OC(=O)NCCNC(=O)c2ccc(Cl)cc2)[C@]1(C)O`, the Ratio with Streptococcus pneumoniae [1] is given as 4. In addition, the MIC with Streptococcus pneumoniae [2] was 64 µg/mL (≈ 78.8 µM); against Staphylococcus aureus [3] it was 16 µg/mL (≈ 19.7 µM); against Staphylococcus aureus [4], 128 µg/mL (≈ 158 µM); against Streptococcus pyogenes [5], 1 µg/mL (≈ 1.23 µM); with Escherichia coli, over 128 µg/mL; against Streptococcus pyogenes [6] it was over 128 µg/mL. Moreover, the MIC turned out to be 0.5 µg/mL (≈ 0.615 µM) against Streptococcus pneumoniae [7], 128 µg/mL (≈ 158 µM) with Pseudomonas aeruginosa, 128 µg/mL (≈ 158 µM) against Streptococcus pneumoniae [8] and 0.25 µg/mL (≈ 0.308 µM) in the assay with Bacillus subtilis.

Regarding `CC[C@H]1OC(=O)[C@H](C)C(=O)[C@H](C)[C@@H](O[C@@H]2O[C@H](C)C[C@H](N(C)C)[C@H]2O)[C@](C)(OC)C[C@@H](C)C(=O)[C@H](C)[C@@H](OC(=O)NCCNC(=O)/C=C/c2ccc(O)cc2)[C@]1(C)O`, the MIC in the assay with Streptococcus pneumoniae [2] is 128 µg/mL (≈ 156 µM); in the assay on Staphylococcus aureus [3] it was 32 µg/mL (≈ 39 µM); against Staphylococcus aureus [4] it was 32 µg/mL (≈ 39 µM); in the assay with Streptococcus pyogenes [5] it was 4 µg/mL (≈ 4.88 µM); with Escherichia coli, over 128 µg/mL; in the assay on Streptococcus pyogenes [6], over 128 µg/mL. The MIC in the assay with Streptococcus pneumoniae [7] was 4 µg/mL (≈ 4.88 µM); against Pseudomonas aeruginosa, 128 µg/mL (≈ 156 µM); in the assay with Streptococcus pneumoniae [8], 128 µg/mL (≈ 156 µM); against Bacillus subtilis, 8 µg/mL (≈ 9.76 µM).

For the compound `CC[C@H]1OC(=O)[C@H](C)C(=O)[C@H](C)[C@@H](O[C@@H]2O[C@H](C)C[C@H](N(C)C)[C@H]2O)[C@](C)(OC)C[C@@H](C)C(=O)[C@H](C)[C@@H](OC(=O)NCCNC(=O)/C=C/c2ccc(F)cc2)[C@]1(C)O`, the MIC was 64 µg/mL (≈ 77.9 µM) in the assay with Streptococcus pneumoniae [2]; 32 µg/mL (≈ 38.9 µM) in the assay on Staphylococcus aureus [3]; 128 µg/mL (≈ 156 µM) against Staphylococcus aureus [4]; 2 µg/mL (≈ 2.43 µM) in the assay with Streptococcus pyogenes [5]; over 128 µg/mL against Escherichia coli; over 128 µg/mL against Streptococcus pyogenes [6]. Moreover, the MIC is 4 µg/mL (≈ 4.87 µM) in the assay on Streptococcus pneumoniae [7], over 128 µg/mL in the assay on Pseudomonas aeruginosa, 128 µg/mL (≈ 156 µM) against Streptococcus pneumoniae [8] and 8 µg/mL (≈ 9.73 µM) in the assay on Bacillus subtilis.

For the compound `CC[C@H]1OC(=O)[C@H](C)C(=O)[C@H](C)[C@@H](O[C@@H]2O[C@H](C)C[C@H](N(C)C)[C@H]2O)[C@](C)(OC)C[C@@H](C)C(=O)[C@H](C)[C@@H](OC(=O)NCCNC(=O)/C=C/c2ccc(Br)cc2)[C@]1(C)O`, the MIC with Streptococcus pneumoniae [2] is 128 µg/mL (≈ 145 µM); in the assay on Staphylococcus aureus [3], 32 µg/mL (≈ 36.2 µM); with Staphylococcus aureus [4], 64 µg/mL (≈ 72.5 µM); in the assay with Streptococcus pyogenes [5], 2 µg/mL (≈ 2.27 µM); in the assay on Escherichia coli, over 128 µg/mL; against Streptococcus pyogenes [6] it was over 128 µg/mL. The MIC in the assay on Streptococcus pneumoniae [7] was 2 µg/mL (≈ 2.27 µM); in the assay with Pseudomonas aeruginosa, over 128 µg/mL; with Streptococcus pneumoniae [8], 128 µg/mL (≈ 145 µM); in the assay on Bacillus subtilis, 4 µg/mL (≈ 4.53 µM).

On to `CC[C@H]1OC(=O)[C@H](C)C(=O)[C@H](C)[C@@H](O[C@@H]2O[C@H](C)C[C@H](N(C)C)[C@H]2O)[C@](C)(OC)C[C@@H](C)C(=O)[C@H](C)[C@@H](OC(=O)NCCNC(=O)c2ccc([N+](=O)[O-])cc2N)[C@]1(C)O`, for which the Ratio was determined as 4 in the assay with Streptococcus pneumoniae [1] and 8 in the assay with Streptococcus pneumoniae [9]. Also, the MIC with Streptococcus pneumoniae [2] was 64 µg/mL (≈ 76.4 µM); against Staphylococcus aureus [3] it was 8 µg/mL (≈ 9.55 µM); in the assay with Staphylococcus aureus [4], 128 µg/mL (≈ 153 µM); in the assay with Streptococcus pyogenes [5], 0.5 µg/mL (≈ 0.597 µM); in the assay on Escherichia coli it was 128 µg/mL (≈ 153 µM); against Streptococcus pyogenes [6], over 128 µg/mL. Moreover, the MIC against Streptococcus pneumoniae [7] is 0.5 µg/mL (≈ 0.597 µM); in the assay on Pseudomonas aeruginosa, over 128 µg/mL; in the assay with Streptococcus pneumoniae [8], 128 µg/mL (≈ 153 µM); in the assay on Bacillus subtilis, 1 µg/mL (≈ 1.19 µM).

In the case of `CC[C@H]1OC(=O)[C@H](C)C(=O)[C@H](C)[C@@H](O[C@@H]2O[C@H](C)C[C@H](N(C)C)[C@H]2O)[C@](C)(OC)C[C@@H](C)C(=O)[C@H](C)[C@@H](OC(=O)NCCNC(=O)/C=C/c2ccc([N+](=O)[O-])cc2)[C@]1(C)O`, the MIC against Streptococcus pneumoniae [2] was 128 µg/mL (≈ 151 µM); against Staphylococcus aureus [3] it was 32 µg/mL (≈ 37.7 µM); against Staphylococcus aureus [4] it was 128 µg/mL (≈ 151 µM); in the assay with Streptococcus pyogenes [5], 1 µg/mL (≈ 1.18 µM); against Escherichia coli it was over 128 µg/mL; against Streptococcus pyogenes [6], over 128 µg/mL. Also, the MIC in the assay on Streptococcus pneumoniae [7] is 1 µg/mL (≈ 1.18 µM); in the assay with Pseudomonas aeruginosa, 128 µg/mL (≈ 151 µM); against Streptococcus pneumoniae [8], 128 µg/mL (≈ 151 µM); against Bacillus subtilis, 4 µg/mL (≈ 4.71 µM).

Take `CC[C@H]1OC(=O)[C@H](C)C(=O)[C@H](C)[C@@H](O[C@@H]2O[C@H](C)C[C@H](N(C)C)[C@H]2O)[C@](C)(OC)C[C@@H](C)C(=O)[C@H](C)[C@@H](OC(=O)NCCNC(=O)/C=C/c2cccc3ccccc23)[C@]1(C)O`: the MIC against Streptococcus pneumoniae [2] was determined as 128 µg/mL (≈ 150 µM); against Staphylococcus aureus [3], 16 µg/mL (≈ 18.7 µM); with Staphylococcus aureus [4], 32 µg/mL (≈ 37.5 µM); with Streptococcus pyogenes [5], 1 µg/mL (≈ 1.17 µM); in the assay with Escherichia coli, 128 µg/mL (≈ 150 µM); in the assay with Streptococcus pyogenes [6] it was 128 µg/mL (≈ 150 µM). Moreover, the MIC against Streptococcus pneumoniae [7] was 2 µg/mL (≈ 2.34 µM); against Pseudomonas aeruginosa it was over 128 µg/mL; in the assay with Streptococcus pneumoniae [8], 128 µg/mL (≈ 150 µM); in the assay with Bacillus subtilis, 2 µg/mL (≈ 2.34 µM).

Source of the values: ChEMBL document CHEMBL4052765, “Synthesis and antibacterial evaluation of novel 11-O-carbamoyl clarithromycin ketolides” (2017).
